According to patent US20260355196A1, “INHIBITORS AND DEGRADERS OF PIP4K PROTEIN” (Larkspur Biosciences, Inc., priority 2023, published 2026):

biological target: T1, PIP4K2C (Homo sapiens, UniProt Q8TBX8); assay: HiBiT PIP4K2C degradation assay in MOLT-4 cells (endogenous PIP4K2C C-terminally tagged with HiBiT); type: cell-based; design: untagged in primary human PBMCs and monocyte-derived dendritic cells; conditions: 6 hours of incubation time, rather than 24 hours; MOLT-4, top concentration 10 micromolar; read-out: HiBIT-degradation MOLT4 PIP4k2C DC50 (6 hours, marked *)
T1 sequence (Q8TBX8 1-421): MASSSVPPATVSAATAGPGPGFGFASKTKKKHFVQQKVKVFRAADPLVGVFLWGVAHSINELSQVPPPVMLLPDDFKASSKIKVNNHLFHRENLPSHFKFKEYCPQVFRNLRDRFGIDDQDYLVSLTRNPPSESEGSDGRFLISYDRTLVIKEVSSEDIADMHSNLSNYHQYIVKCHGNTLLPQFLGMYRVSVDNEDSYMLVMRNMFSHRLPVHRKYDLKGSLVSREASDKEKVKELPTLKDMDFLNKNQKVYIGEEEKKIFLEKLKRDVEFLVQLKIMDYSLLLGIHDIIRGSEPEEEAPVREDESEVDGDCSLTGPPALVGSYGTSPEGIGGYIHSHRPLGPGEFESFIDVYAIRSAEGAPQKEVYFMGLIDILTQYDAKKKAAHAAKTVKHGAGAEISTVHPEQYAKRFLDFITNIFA
How it was run: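 MOLT-4 knock-in line, HiBiT on PIP4K2C C-terminus; 22,500 cells/well; 10-pt 3-fold titration from 10 micromolar, n=2; 24 h or 6 h, 37 C, 5% CO2; Nano-Glo HiBiT lytic luminescence; DC50 via Hill equation.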

DC50, < 500 nM:
O=C1CCC(Nc2ccc(N3CCC(N4CCC(C(=O)N[C@H]5CC[C@H](Nc6ncc(F)c(-c7cccc(-c8ccc[nH]c8=O)c7)n6)CC5)CC4)CC3)c(F)c2)C(=O)N1 (stereo partly drawn) [Compound 429, trans-1′-(4-((2,6-dioxopiperidin-3-yl)amino)-2-fluorophenyl)-N-(4-((5-fluoro-4-(3-(2-oxo-1,2-dihydropyridin-3-yl)phenyl)pyrimidin-2-yl)amino)cyclohexyl)-[1,4′-bipiperidine]-4-carboxamide]
O=C1CCC(Nc2ccc(N3CCC(CN4CCN(C(=O)[C@H]5CC[C@H](Nc6ncc(F)c(-c7cccc(-c8ccc[nH]c8=O)c7)n6)CC5)CC4)CC3)c(F)c2)C(=O)N1 (stereo partly drawn) [Compound 430, 3-((3-fluoro-4-(4-((4-(trans-4-((5-fluoro-4-(3-(2-oxo-1,2-dihydropyridin-3-yl)phenyl)pyrimidin-2-yl)amino)cyclohexane-1-carbonyl)piperazin-1-yl)methyl)piperidin-1-yl)phenyl)amino)piperidine-2,6-dione]
O=C1CCC(Nc2ccc(N3CCC(N4CCC(NC(=O)[C@H]5CC[C@H](Nc6ncc(F)c(-c7cccc(-n8ccccc8=O)c7)n6)CC5)CC4)C(F)(F)C3)c(F)c2)C(=O)N1 (stereo partly drawn) [Compound 431, trans-N-(1′-(4-((2,6-dioxopiperidin-3-yl)amino)-2-fluorophenyl)-3′,3′-difluoro-[1,4′-bipiperidin]-4-yl)-4-((5-fluoro-4-(3-(2-oxopyridin-1(2H)-yl)phenyl)pyrimidin-2-yl)amino)cyclohexane-1-carboxamide]
O=C1CCC(Nc2ccc(C3CCN(C4CCC(NC(=O)C5CCC(Nc6ncc(F)c(-c7cccc(-c8ccc[nH]c8=O)c7)n6)CC5)CC4)CC3)c(F)c2)C(=O)N1 [Compound 435, trans-(1r,4R)—N-((1S,4R)-4-(4-(4-(((S)-2,6-dioxopiperidin-3-yl)amino)-2-fluorophenyl)piperidin-1-yl)cyclohexyl)-4-((5-fluoro-4-(3-(2-oxo-1,2-dihydropyridin-3-yl)phenyl)pyrimidin-2-yl)amino)cyclohexane-1-carboxamide]
O=C1CC[C@@H](Nc2ccc(N3CCC(N4CCC(NC(=O)[C@H]5CC[C@H](Nc6ncc(F)c(-c7cccc(-n8ccccc8=O)c7)n6)CC5)CC4)CC3)c(F)c2)C(=O)N1 [Compound 440, trans-N-(1′-(4-(((R)-2,6-dioxopiperidin-3-yl)amino)-2-fluorophenyl)-[1,4′-bipiperidin]-4-yl)-4-((5-fluoro-4-(3-(2-oxopyridin-1(2H)-yl)phenyl)pyrimidin-2-yl)amino)cyclohexane-1-carboxamide]
O=C1CCC(Nc2ccc(N3CCC(N4CCC(O)(C(=O)N[C@H]5CC[C@H](Nc6ncc(F)c(-c7cccc(-n8ccccc8=O)c7)n6)CC5)CC4)CC3)c(F)c2)C(=O)N1 (stereo partly drawn) [Compound 444, trans-1′-(4-((2,6-dioxopiperidin-3-yl)amino)-2-fluorophenyl)-N-(4-((5-fluoro-4-(3-(2-oxopyridin-1(2H)-yl)phenyl)pyrimidin-2-yl)amino)cyclohexyl)-4-hydroxy-[1,4′-bipiperidine]-4-carboxamide]
O=C1CCC(Nc2ccc(C3CCN([C@H]4CC[C@H](C(=O)N[C@H]5CC[C@H](Nc6ncc(F)c(-c7cccc(N8CCOC8=O)c7)n6)CC5)CC4)CC3)c(F)c2)C(=O)N1 (stereo partly drawn) [Compound 446, trans-(1r,4R)-4-(4-(4-((2,6-dioxopiperidin-3-yl)amino)-2-fluorophenyl)piperidin-1-yl)-N-((1r,4R)-4-((5-fluoro-4-(3-(2-oxooxazolidin-3-yl)phenyl)pyrimidin-2-yl)amino)cyclohexyl)cyclohexane-1-carboxamide]
O=C1CCC(Nc2ccc(C3CCN([C@H]4CC[C@H](C(=O)N[C@H]5CC[C@H](Nc6ncc(F)c(-c7cccc(N8CCCCC8=O)c7)n6)CC5)CC4)CC3)c(F)c2)C(=O)N1 (stereo partly drawn) [Compound 447, trans-(1r,4R)-4-(4-(4-((2,6-dioxopiperidin-3-yl)amino)-2-fluorophenyl)piperidin-1-yl)-N-((1r,4R)-4-((5-fluoro-4-(3-(2-oxopiperidin-1-yl)phenyl)pyrimidin-2-yl)amino)cyclohexyl)cyclohexane-1-carboxamide]
O=C1CCC(Nc2ccc(N3CCN([C@H]4CC[C@H](C(=O)N[C@H]5CC[C@H](Nc6ncc(F)c(-c7cccc(-c8ccc[nH]c8=O)c7)n6)CC5)CC4)CC3)c(F)c2)C(=O)N1 (stereo partly drawn) [Compound 450, trans-4-(4-(4-((2,6-dioxopiperidin-3-yl)amino)-2-fluorophenyl)piperazin-1-yl)-N-(trans-4-((5-fluoro-4-(3-(2-oxo-1,2-dihydropyridin-3-yl)phenyl)pyrimidin-2-yl)amino)cyclohexyl)cyclohexane-1-carboxamide]
O=C1CCC(Nc2ccc(N3CCC(N4CCC(NC(=O)[C@H]5CC[C@H](Nc6ncc(F)c(-c7cccc(-c8ccc[nH]c8=O)c7)n6)CC5)CC4)C(F)(F)C3)c(F)c2)C(=O)N1 (stereo partly drawn) [Compound 451, trans-N-(1′-(4-((2,6-dioxopiperidin-3-yl)amino)-2-fluorophenyl)-3′,3′-difluoro-[1,4′-bipiperidin]-4-yl)-4-((5-fluoro-4-(3-(2-oxo-1,2-dihydropyridin-3-yl)phenyl)pyrimidin-2-yl)amino)cyclohexane-1-carboxamide]
O=C1CCC(Nc2ccc(N3CCC(N4CCC(NC(=O)[C@H]5CC[C@H](Nc6ncc(F)c(-c7cccc(-n8ccccc8=O)c7)n6)CC5)CC4)C(F)C3)c(F)c2)C(=O)N1 (stereo partly drawn) [Compound 452, trans-N-(1′-(4-((2,6-dioxopiperidin-3-yl)amino)-2-fluorophenyl)-3′-fluoro-[1,4′-bipiperidin]-4-yl)-4-((5-fluoro-4-(3-(2-oxopyridin-1(2H)-yl)phenyl)pyrimidin-2-yl)amino)cyclohexane-1-carboxamide]
O=C1CCC(Nc2ccc(N3CCC(N4CCC(NC(=O)[C@H]5CC[C@H](Nc6ncc(F)c(-c7cccc(-c8ccc[nH]c8=O)c7)n6)CC5)CC4)C(F)C3)c(F)c2)C(=O)N1 (stereo partly drawn) [Compound 453, trans-N-(1′-(4-((2,6-dioxopiperidin-3-yl)amino)-2-fluorophenyl)-3′-fluoro-[1,4′-bipiperidin]-4-yl)-4-((5-fluoro-4-(3-(2-oxo-1,2-dihydropyridin-3-yl)phenyl)pyrimidin-2-yl)amino)cyclohexane-1-carboxamide]
O=C1CC[C@@H](Nc2ccc(C3CCN([C@H]4CC[C@H](C(=O)N[C@H]5CC[C@H](Nc6ncc(F)c(-c7cccc(-c8ccc[nH]c8=O)c7)n6)CC5)CC4)CC3)c(F)c2)C(=O)N1 [Compound 454, trans-4-(4-(4-(((R)-2,6-dioxopiperidin-3-yl)amino)-2-fluorophenyl)piperidin-1-yl)-N-(trans-4-((5-fluoro-4-(3-(2-oxo-1,2-dihydropyridin-3-yl)phenyl)pyrimidin-2-yl)amino)cyclohexyl)cyclohexane-1-carboxamide]
O=C1CC[C@H](Nc2ccc(C3CCN([C@H]4CC[C@H](C(=O)N[C@H]5CC[C@H](Nc6ncc(F)c(-c7cccc(-n8ccccc8=O)c7)n6)CC5)CC4)CC3)c(F)c2)C(=O)N1 [Compound 457, (1S,4R)-4-(4-(4-(((S)-2,6-dioxopiperidin-3-yl)amino)-2-fluorophenyl)piperidin-1-yl)-N-((1r,4R)-4-((5-fluoro-4-(3-(2-oxopyridin-1(2H)-yl)phenyl)pyrimidin-2-yl)amino)cyclohexyl)cyclohexane-1-carboxamide]
O=C1CCC(Nc2ccc(N3CCN(CC4(O)CCN(C(=O)[C@H]5CC[C@H](Nc6ncc(F)c(-c7cccc(-c8ccccc8)c7)n6)CC5)CC4)CC3)c(F)c2)C(=O)N1 (stereo partly drawn) [Compound 463, trans-3-[3-fluoro-4-[4-[[1-[4-[[5-fluoro-4-(3-phenylphenyl)pyrimidin-2-yl]amino]cyclohexanecarbonyl]-4-hydroxy-4-piperidyl]methyl]piperazin-1-yl]anilino]piperidine-2,6-dione]
O=C1CCC(Nc2ccc(C3CCN(CC4(O)CCN(C(=O)[C@H]5CC[C@H](Nc6ncc(F)c(-c7cccc(-c8ccccc8)c7)n6)CC5)CC4)CC3)c(F)c2)C(=O)N1 (stereo partly drawn) [Compound 464, 3-((4-(1-((1-(trans-4-((4-([1,1′-biphenyl]-3-yl)-5-fluoropyrimidin-2-yl)amino)cyclohexane-1-carbonyl)-4-hydroxypiperidin-4-yl)methyl)piperidin-4-yl)-3-fluorophenyl)amino)piperidine-2,6-dione]
O=C1CCC(Nc2ccc(C3CCN(CC4CCN(C(=O)N5CCC(Nc6ncc(F)c(-c7cccc(-n8ccccc8=O)c7)n6)CC5)CC4)CC3)c(F)c2)C(=O)N1 (centres unmarked) [Compound 465, 3-((3-fluoro-4-(1-((1-(4-((5-fluoro-4-(3-(2-oxopyridin-1 (2H)-yl)phenyl)pyrimidin-2-yl)amino)piperidine-1-carbonyl)piperidin-4-yl)methyl)piperidin-4-yl)phenyl)amino)piperidine-2,6-dione]
